# Measurements: patent US4857652A, “Chemiluminescent 1,2-dioxetane compounds” (priority 1988, dated 1989)
# Read-outs that look alike come from different tables or passages of the source.
# Legend:
# [1] = format: physicochemical; details: for Ea (activation energy for decomposition) / k at 25° C.: in xylene
# Experimental: Rates of dioxetane decomposition were monitored by the decay of chemiluminescence of aerated solutions. A cylindrical Pyrex vial equipped with magnet stir bar was filled with 3-4 mL of the reaction solvent, sealed with a Teflon-lined screw cap and placed in the thermostatted sample block of the chemiluminescence-measuring apparatus (Black Box). Temperature control was provided by an external circulating water bath. Appropriate values for the instrument gain and optical slit size were selected. […]. The vial was sealed with a Teflon-lined screw cap to prevent evaporation when high temperatures were used. Measurement of the signal was begun by opening the shutter. The chemiluminescent decay was generally recorded for at least three half-lives. Calculation of the first-order rate constant, k, from the In(Intensity) vs. time data was performed by a computer program utilizing a standard least-squares treatment. The correlation coefficient, r, was typically at least 0.999 and varied less than 5% between replicate samples. The observed rate was not measurably concentration dependent.
# Activation parameters for decomposition of the dioxetanes were calculated from plots of In k.vs. 1/T (Arrhenius eq.) or In k/t vs. 1/T (Eyring eq.) by a standard least-squares linear regression analysis.
# [2] = format: physicochemical; details: for base-induced decomposition, chemiluminescence: room temperature
# Experimental: (§1) A solution of the dioxetane in a suitable solvent (e.g. o-xylene) was placed in the reaction vial as described above. The vial was placed in the sample holder which was maintained at a temperature such that thermal decomposition of the dioxetane was negligible. Instrument parameters were selected as above and data collection started. A solution of the releasing agent (e.g. base or fluoride) preferably in the reaction solvent was injected by syringe into the rapidly stirred dioxetane solution. The volume of releasing agent added was generally less than 5% of the total volume so that temperature fluctuation of the sample during the time course of the decay was minimal. The pseudo-first order decay was monitored for at least three half-lives.
# 1. Triggering the Chemiluminescence of Hydroxy-Substituted Dioxetanes with Base: Potassium tert-butoxide induced decomposition of 2b. […].
# [3] = format: physicochemical
# Experimental: as §1
# 2. Triggering the Chemiluminescence of Silyloxy-Substituted Dioxetanes with Fluoride Ion: Fluoride ion induced decomposition of 2c. […]. […]. A spectrum of the chemiluminescence obtained from the fluoride triggering of 2c in 1:1 aqueous/2-methoxyethanol is shown in FIG. 1 with the solid line. The fluorescence of the cleavage product (methyl 6-hydroxy-2-naphthoate) from the dioxetane is also shown with the dashed line for comparison.
# [4] = Triggering properties of further dioxetanes (general statement); format: physicochemical
# Experimental: as §1
# [5] = format: physicochemical; details: 0.002M in 2-methoxyethanol, stored at 0° C.
# Experimental: (§2) A secondary stock solution of the acetate-protected dioxetane 2e was made by evaporating an aliquot of the methylene chloride stock equivalent to 10 micromoles of dioxetane and dissolving in 5.0 mL of 2-methoxyethanol to give a final concentration of 0.002M. […] Buffer solutions prepared in distilled water were 0.05M phosphate pH 7.6 and 8.0, 0.02M Tris (tris-hydroxymethylaninomethane maleate) pH 7.6, and pH 9.0 phosphate/borate buffer. Aryl esterase (also called carboxylic ester hydrolase (P-5221)) from porcine liver was purchased from Sigma Chemical Co. as a suspension of 11 mg of protein per mL in 3.2M (NH4)2 SO4 solution pH 8.0. Each mg of protein is equivalent to 260 Units, where 1 Unit is defined as the amount which will hydrolyze 1 micromole of ethyl butyrate in 1 minute at pH 8.0, 25° C. […] Injection of 1 μL of […] of aryl esterase to the stirred solution caused a chemiluminescent signal to appear. The intensity reached a maximum at about 3 minutes and decayed over a 30 minute period.
# [6] = molecular target: T1, Acetylcholinesterase from human erythrocytes (Homo sapiens, UniProt P22303); experiment: Enzymatic triggering of chemiluminescence with acetylcholinesterase; format: biochemical; details: 10 μL stock in 3 mL 0.05M phosphate buffer pH 8.0, 37.0° C.
# T1 construct: purchased Sigma Chemical Co. C-3389; host or cells: human erythrocytes
# T1 sequence (P22303 other isoform, or with tags, fused parts or gaps): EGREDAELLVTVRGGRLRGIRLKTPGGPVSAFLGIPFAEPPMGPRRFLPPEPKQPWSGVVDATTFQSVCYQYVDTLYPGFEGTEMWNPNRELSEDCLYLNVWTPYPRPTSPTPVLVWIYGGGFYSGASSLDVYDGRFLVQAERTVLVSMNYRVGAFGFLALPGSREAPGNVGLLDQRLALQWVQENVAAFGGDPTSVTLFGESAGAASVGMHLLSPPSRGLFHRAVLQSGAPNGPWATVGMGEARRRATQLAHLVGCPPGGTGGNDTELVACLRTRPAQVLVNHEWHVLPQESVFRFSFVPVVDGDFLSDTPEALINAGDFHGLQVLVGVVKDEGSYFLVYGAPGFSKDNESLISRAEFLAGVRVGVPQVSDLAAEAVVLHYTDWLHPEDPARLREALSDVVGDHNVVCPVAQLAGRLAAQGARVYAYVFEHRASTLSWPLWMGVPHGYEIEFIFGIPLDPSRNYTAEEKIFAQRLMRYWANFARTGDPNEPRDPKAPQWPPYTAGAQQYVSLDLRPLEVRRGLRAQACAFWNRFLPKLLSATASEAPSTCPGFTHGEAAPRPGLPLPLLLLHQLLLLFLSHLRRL
# Source text: Acetylcholinesterase, an enzyme of considerable biological significance, hydrolyzes acetylcholine to choline and acetic acid under physiological conditions. It was of interest to determine whether this enzyme would also initiate the chemiluminescent decomposition of the acetyl-protected dioxetane 2e by removal of the acetyl group. Acetylcholinesterase (C-3389) from human erythrocytes was purchased from Sigma Chemical Co. as a lyophilized powder containing phosphate buffer salts. […]. Addition of more dioxetane during this period generated more light.
# [7] = Stability of dioxetane in aqueous buffers (IMAX with delay before the enzyme was added); format: physicochemical
# Experimental: Stability of Enzyme and Dioxetane to Reaction Conditions. Many dioxetanes are known to be destroyed via a non-luminescent pathway by acid catalyzed processes in aprotic solvents. Similarly, amines are also known to cause the catalytic destruction of dioxetanes via an electron-transfer process. The stability of the dioxetane to the aqueous buffers used in the enzyme reactions, especially Tris buffer, was a matter of concern. A series of experiments were performed to assess the stability of the dioxetane in these buffers over the expected time course of a typical run. A comparison was made between the maximum light intensity produced for a given buffer and temperature with delays of 0 and 30 minutes before the enzyme was added. If the dioxetane were decomposing in the buffer then IMAX of the run where the dioxetane was exposed to the buffer for 30 minutes would be lower provided the enzyme is not saturated. […] In 0.05M phosphate buffer, pH 7.6 at 25° C. and 37 ° C. the percent decrease in IMAX due to the 30 minute delay was, respectively, 0 and 7% while in 0.02M Tris buffer, pH 7.6 at 25° C. a 12% decrease was found and at 37° C. after a delay of one hour a 34% decrease occurred.
# [8] = system: Aryl esterase (carboxylic ester hydrolase) from porcine liver; experiment: Enzymatic triggering of chemiluminescence with aryl esterase; format: biochemical; details: for effect of competing substrate on light intensity of 2e/esterase reaction: 10 μL of […] added at maximum emission, pH 7.6 phosphate buffer, 37° C.; for hydrolysis by the enzyme (UV spectroscopy): under the reaction conditions
# Experimental: as §2
# (3.) When distilled water was substituted for the Tris buffer, no chemiluminescence signal was observed, but on adding Tris buffer to this solution light emission similar to that above was produced. […] Addition of untreated enzyme preparation to this solution again produced light. […] The emission could be totally extinguished by addition of sufficient SDS. The decrease in light emission is not due to photophysical quenching of the excited state since thermal decomposition in the same solvent system at elevated temperatures results in readily detectable chemiluminescence.
# This type of behavior explains the effect of the addition of the known esterase substrates α-naphthyl acetate and β-naphthyl acetate. […] A solution of 25 μL of the dioxetane stock (0.002M) in 3 mL of pH 7.6 phosphate buffer maintained at 37° C. was treated with 5 μL of the enzyme to initiate the chemiluminescence. At the point of maximum emission 10 μL of 0.011M solution of either α- or β-naphthyl acetate were added.
# [9] = 0.3 μmol dioxetane, 0.26 units aryl esterase, pH 7.6 Tris buffer, 25° C.
# [10] = compared with dioxetanes 2a-c and 2e
# [11] = polar aprotic solvents such as acetonitrile
compound,measurement,setting,value
"COC1(c2ccc3ccccc3c2)OOC12C1CC3CC(C1)CC2C3 (centres unmarked) [Dioxetane 2a, 4-Methoxy-4-(2-naphthyl)spiro[1,2-dioxetane-3,2'-adamantane]]",Ea (activation energy for decomposition),[1],29.7
same,k at 25° C.,[1]; 25° C.,3.17e-09 s⁻¹
"COC1(c2ccc3cc(O)ccc3c2)OOC12C1CC3CC(C1)CC2C3 (centres unmarked) [Dioxetane 2b, 4-(6-Hydroxy-2-naphthyl)-4-methoxyspiro[1,2-dioxetane-3,2'-adamantane]]",Ea (activation energy for decomposition),[1],29.7
same,k at 25° C.,[1]; 25° C.,3.83e-09 s⁻¹
same,"half-life of chemiluminescence decay, base triggered","[2]; 10^-4 M in o-xylene, potassium t-butoxide 0.005M, 25° C., 100 µM",approximately 20 seconds
same,base triggered chemiluminescence,[2]; in methanol with KOH or in o-xylene with n-BuLi,bright blue chemiluminescence with similar decay rates
COC1(c2ccc3cc(O[Si](C)(C)C(C)(C)C)ccc3c2)OOC12C1CC3CC(C1)CC2C3 (centres unmarked) [Dioxetane 2c],half-life of decomposition in the absence of fluoride ion,"[1]; 25° C., no fluoride",2.5 years
same,Ea (activation energy for decomposition),[1],27.0
same,k at 25° C.,[1]; 25° C.,8.72e-09 s⁻¹
same,"half-life of chemiluminescence decay, fluoride triggered","[3]; 10^-4 M in 0.01M tetrabutylammonium fluoride in 2-methoxyethanol, room temperature, 100 µM",about 20 minutes
COC1(c2ccc3cc(O[Si](c4ccccc4)(c4ccccc4)C(C)(C)C)ccc3c2)OOC12C1CC3CC(C1)CC2C3 (centres unmarked) [Dioxetane 2d],chemiluminescence in polar aprotic solvents,[3],bright chemiluminescence
same,triggering properties,[4],triggering properties similar to dioxetanes 2a-c and 2e
"COC1(c2ccc3cc(OC(C)=O)ccc3c2)OOC12C1CC3CC(C1)CC2C3 (centres unmarked) [Dioxetane 2e, 4-(6-Acetoxy-2-naphthyl)-4-methoxyspiro[1,2-dioxetane-3,2'-adamantane]]",stability of stock solution,[5],stable indefinitely
same,duration of light emission,[6],20 s
same,persistence of thermal chemiluminescence,[1]; aliquot in 3 mL o-xylene at 95° C.,persisted for several hours
same,percent decrease in IMAX due to delay,"[7]; 0.02M Tris buffer pH 7.6, 25° C., 30 minute delay",12%
same,percent decrease in IMAX due to delay,"[7]; 0.02M Tris buffer pH 7.6, 37° C., delay of one hour",34%
same,percent decrease in IMAX due to delay,"[7]; 0.05M phosphate buffer pH 7.6, 25° C., 30 minute delay",0%
same,percent decrease in IMAX due to delay,"[7]; 0.05M phosphate buffer pH 7.6, 37° C., 30 minute delay",7%
same,period of decay of chemiluminescence,[8]; [9],30 min
same,time at which intensity reached a maximum,[8]; [9],about 3 minutes
same,"maximum light intensity, IMAX, versus temperature","[8]; 1 μL enzyme, Tris buffer, 25°, 37° and 50° C.",increased with increasing temperature
same,chemiluminescence signal without enzyme,"[8]; 150 μL stock in 3.0 mL pH 7.6 Tris buffer, 25° C., before enzyme",no chemiluminescence signal was detected
Oc1ccc2c(c1)C1(OOC13C1CC4CC(C1)CC3C4)c1ccccc1-2 (centres unmarked) [Dioxetane 4a],triggering properties,[4]; [10],triggering properties similar to dioxetanes 2a-c and 2e
same,"base-induced decomposition, chemiluminescence",[2],produced chemiluminescence at room temperature
"CC(C)(C)[Si](C)(C)Oc1ccc2c(c1)C1(OOC13C1CC4CC(C1)CC3C4)c1ccccc1-2 (centres unmarked) [Dioxetane 4b, Dispiro[adamantane-2,3'-[1,2]dioxetane-4',9""-(2-tert-butyldimethylsilyloxy-9-fluorene)]]",chemiluminescence in polar aprotic solvents,[3]; [11],bright chemiluminescence
Oc1ccc2c(c1)Oc1ccccc1C21OOC12C1CC3CC(C1)CC2C3 (centres unmarked) [Dioxetane 6a],triggering properties,[4]; [10],triggering properties similar to dioxetanes 2a-c and 2e
same,"base-induced decomposition, chemiluminescence",[2],produced chemiluminescence at room temperature
CC(C)(C)[Si](C)(C)Oc1ccc2c(c1)Oc1ccccc1C21OOC12C1CC3CC(C1)CC2C3 (centres unmarked) [Dioxetane 6b],chemiluminescence in polar aprotic solvents,[3],bright chemiluminescence
same,triggering properties,[4],triggering properties similar to dioxetanes 2a-c and 2e
CC(=O)Oc1ccc2c(c1)Oc1ccccc1C21OOC12C1CC3CC(C1)CC2C3 (centres unmarked) [Dioxetane 6c],triggering properties,[4]; [10],triggering properties similar to dioxetanes 2a-c and 2e
COC1(c2cccc(O)c2)OOC12C1CC3CC(C1)CC2C3 (centres unmarked) [Dioxetane 8a],"base-induced decomposition, chemiluminescence",[2],produced chemiluminescence at room temperature
"COC1(c2cccc(O[Si](C)(C)C(C)(C)C)c2)OOC12C1CC3CC(C1)CC2C3 (centres unmarked) [Dioxetane 8b, 4-(3-tert-Butyldimethylsilyloxyphenyl)-4-methoxyspiro[1,2-dioxetane-3,2'-adamantane]]",chemiluminescence in polar aprotic solvents,[3]; [11],bright chemiluminescence
"CCCCCCCCCCCCOS(=O)(=O)[O-].[Na+] [sodium lauryl sulfate (SDS), sodium lauryl sulfate]",effect of enzyme inhibitor on light emission of 2e/esterase reaction,"[8]; added at maximum emission, Tris buffer, 1.5 μL enzyme",irreversible decrease in the intensity
CC(=O)Oc1cccc2ccccc12 [α-naphthyl acetate],effect of competing substrate on light intensity of 2e/esterase reaction,[8],rapid decrease in light intensity was noted followed by restoration of the original intensity within less than one minute
same,hydrolysis by the enzyme (UV spectroscopy),[8],hydrolyzed by the enzyme in seconds
CC(=O)Oc1ccc2ccccc2c1 [β-naphthyl acetate],effect of competing substrate on light intensity of 2e/esterase reaction,[8],rapid decrease in light intensity was noted followed by restoration of the original intensity within less than one minute
same,hydrolysis by the enzyme (UV spectroscopy),[8],hydrolyzed by the enzyme in seconds
